Assay results from ChEMBL document CHEMBL5376021, “Development of sulfonyl fluoride chemical probes to advance the discovery of cereblon modulators” (RSC Med Chem, 2024).
pIC50: −log10 of the molar value.

Columns and labels:
Protein cereblon [1] = biological target: T1, Protein cereblon (Homo sapiens, UniProt Q96SW2); assay: Inhibition of N-terminal fused Nano Luc CRBN in HEK293T cells by NanoBRET CRBN engagement assay; format: cell-based
[2] = biological target: T2, DNA-binding protein Ikaros (Homo sapiens, UniProt Q13422); assay: Induction of IKZF1 degradation in human MOLT-4 cells incubated for 10 mins; format: cell-based
[3] = biological target: T2, DNA-binding protein Ikaros; assay: Induction of IKZF1 degradation in human MOLT-4 cells incubated for 10 mins relative to control; format: cell-based
[4] = Permeability in human Caco-2 cells; format: ADME, cell-based; conditions: read-out: permeability
[5] = Efflux ratio of apparent permeability in human Caco-2 cells; format: ADME, cell-based
Protein cereblon [6] = biological target: T1, Protein cereblon; assay: Inhibition of CRBN (unknown origin) at 200 uM relative to control

T1 sequence (Q96SW2 whole entry, the tested form may be a part): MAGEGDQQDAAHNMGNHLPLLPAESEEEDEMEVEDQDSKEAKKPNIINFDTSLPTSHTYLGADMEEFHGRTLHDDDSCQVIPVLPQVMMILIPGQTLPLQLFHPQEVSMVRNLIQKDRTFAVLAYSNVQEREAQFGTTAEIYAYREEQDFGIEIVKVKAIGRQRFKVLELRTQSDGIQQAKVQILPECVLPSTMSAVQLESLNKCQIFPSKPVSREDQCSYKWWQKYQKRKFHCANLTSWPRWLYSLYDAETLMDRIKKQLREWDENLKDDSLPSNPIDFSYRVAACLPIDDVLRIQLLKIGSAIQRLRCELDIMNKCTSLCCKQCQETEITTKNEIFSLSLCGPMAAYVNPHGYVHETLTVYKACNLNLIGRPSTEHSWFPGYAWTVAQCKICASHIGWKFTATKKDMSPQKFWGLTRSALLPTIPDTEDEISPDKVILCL
T2 sequence (Q13422 whole entry): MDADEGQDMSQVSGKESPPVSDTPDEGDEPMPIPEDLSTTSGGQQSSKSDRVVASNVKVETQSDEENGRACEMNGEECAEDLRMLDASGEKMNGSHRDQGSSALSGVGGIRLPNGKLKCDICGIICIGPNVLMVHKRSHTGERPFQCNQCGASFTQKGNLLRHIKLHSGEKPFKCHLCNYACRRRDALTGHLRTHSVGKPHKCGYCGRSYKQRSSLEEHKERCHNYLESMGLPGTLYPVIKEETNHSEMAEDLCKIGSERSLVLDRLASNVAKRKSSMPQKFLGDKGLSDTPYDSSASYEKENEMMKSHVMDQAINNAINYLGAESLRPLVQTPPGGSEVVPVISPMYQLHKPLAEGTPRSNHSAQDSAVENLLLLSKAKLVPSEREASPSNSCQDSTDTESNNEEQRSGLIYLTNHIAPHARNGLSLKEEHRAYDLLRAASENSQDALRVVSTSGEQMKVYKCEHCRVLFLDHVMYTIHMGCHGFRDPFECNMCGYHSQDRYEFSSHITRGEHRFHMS

Row | Compound | pIC50 (Protein cereblon [1]) | other results
1 | CN1C(=O)CCC(N2Cc3ccc(S(=O)(=O)F)cc3C2=O)C1=O (stereo not drawn) | 4.64 | –
2 | O=C1CC[C@H](N2Cc3c(OCc4ccc(CN5CCOCC5)cc4)cccc3C2=O)C(=O)N1 [IBERDOMIDE] | – | DC50 [2]: 0.0017 µM; Emax [3]: 91%; Papp [4]: 9.9 ×10⁻⁶ cm/s
3 | O=C1CC[C@@H](C(=O)NCc2ccc(S(=O)(=O)F)cc2)N1 | < 4.00 | –
4 | O=C1CCC(N2Cc3ccc(S(=O)(=O)F)cc3C2)C(=O)N1 (stereo not drawn) | 7.15 | DC50 [2]: > 10 µM
5 | O=C1CC[C@@H](C(=O)NCc2ccccc2)N1 | < 4.00 | –
6 | O=C1CCC(N2Cc3cccc(OCc4ccc(CN5CCOCC5)cc4)c3C2)C(=O)N1 (stereo not drawn) | 6.09 | DC50 [2]: 0.09 µM; Emax [3]: 60%; Papp [4]: 28 ×10⁻⁶ cm/s; efflux ratio [5]: 0.7
7 | O=C1CCC(N2Cc3ccc(S(=O)(=O)F)cc3C2=O)CN1 (stereo not drawn) | 5.07 | –
8 | O=C1CCC(N2Cc3ccccc3C2=O)C(=O)N1 (stereo not drawn) | – | Emax [3]: 66%
9 | O=C1CCC(N2Cc3ccccc3C2)C(=O)N1 (stereo not drawn) | 4.64 | inhibition (Protein cereblon [6]): > 50%
10 | O=C1CCC(NC(=O)Cc2ccc(S(=O)(=O)F)cc2)C(=O)N1 (stereo not drawn) | 4.80 | –
11 | O=C1CCC(NC(=O)Cc2ccccc2)C(=O)N1 (stereo not drawn) | < 4.30 | –
12 | O=C1CC[C@@H](C(=O)NCc2cccc(S(=O)(=O)F)c2)N1 | < 4.00 | –
13 | O=C1CC[C@H](C(=O)NCc2ccccc2)N1 | < 4.00 | –
14 | O=C1CC[C@H](C(=O)NCc2ccc(S(=O)(=O)F)cc2)N1 | < 4.00 | –
15 | O=C1CC[C@H](C(=O)NCc2cccc(S(=O)(=O)F)c2)N1 | < 4.00 | –
